Patent publication US20190062428A1, “COMBINATION OF ANTI-CD47 ANTIBODIES AND CELL DEATH-INDUCING AGENTS, AND USES THEREOF” (Surface Oncology, Inc., priority 2017, published 2019)

Test system: Ri-1 tumors
Experiment: Ri-1 human B cell lymphoma (DLBCL) subcutaneous xenograft, tumor volume
Type: in vivo, CB.17 SCID mice
Settings: FIG. 4
Procedure: The Ri-1 cell line is a human B cell lymphoma line that represents the ABC-subtype of diffuse large cell B cell lymphoma (DLBCL) and harbors a BCL-2 amplification. ABT-199, also known as Venclexta™ or Venetoclax, is an oral BCL-2 inhibitor, and was used as the cell death-inducing agent.
Briefly, 1×10^7 Ri-1 cells were injected subcutaneously into the right flank of CB.17 SCID mice in a 1:1 mixture of RPMI and Matrigel. Tumors were allowed to grow until they were 200-300 mm^3.

CC1(C)CCC(CN2CCN(c3ccc(C(=O)NS(=O)(=O)c4ccc(NCC5CCOCC5)c([N+](=O)[O-])c4)c(Oc4cnc5[nH]ccc5c4)c3)CC2)=C(c2ccc(Cl)cc2)C1 [ABT-199, reference compound]
single-agent anti-tumor activity (2.3D11 100 μg/mouse days 0, 3, 7, ABT-199 25 mg/kg days 0-4): potent single-agent anti-tumor activity | tumor re-growth (single agents as above, combination: 2.3D11 100 μg/mouse day 0, then oral ABT-199 25 mg/kg days 3, 4, 5): tumors re-grew
